Laboratory results published in patent publication US20260055110A1 (Azura Ophthalmics Ltd., priority 2021, published 2026).

Key:
uveitis = conditions: humans and/or murine models; Gangaputra 2009; cited from earlier work
dry eye = conditions: murine model; Sadrai et al 2012; cited from earlier work
[1] = biological target: T1, glucocorticoid receptor (GR) (Homo sapiens, UniProt P04150); assay: Glucocorticoid Binding Assay, GR (h) (agonist radioligand); conditions: IM9 cytosol, 3H-dexamethasone competitive binding
T1 construct: by mixing 1 mg of IM9 cytosol; host or cells: IM9 human lymphoblast cell cytosol
T1 sequence (P04150 1-777): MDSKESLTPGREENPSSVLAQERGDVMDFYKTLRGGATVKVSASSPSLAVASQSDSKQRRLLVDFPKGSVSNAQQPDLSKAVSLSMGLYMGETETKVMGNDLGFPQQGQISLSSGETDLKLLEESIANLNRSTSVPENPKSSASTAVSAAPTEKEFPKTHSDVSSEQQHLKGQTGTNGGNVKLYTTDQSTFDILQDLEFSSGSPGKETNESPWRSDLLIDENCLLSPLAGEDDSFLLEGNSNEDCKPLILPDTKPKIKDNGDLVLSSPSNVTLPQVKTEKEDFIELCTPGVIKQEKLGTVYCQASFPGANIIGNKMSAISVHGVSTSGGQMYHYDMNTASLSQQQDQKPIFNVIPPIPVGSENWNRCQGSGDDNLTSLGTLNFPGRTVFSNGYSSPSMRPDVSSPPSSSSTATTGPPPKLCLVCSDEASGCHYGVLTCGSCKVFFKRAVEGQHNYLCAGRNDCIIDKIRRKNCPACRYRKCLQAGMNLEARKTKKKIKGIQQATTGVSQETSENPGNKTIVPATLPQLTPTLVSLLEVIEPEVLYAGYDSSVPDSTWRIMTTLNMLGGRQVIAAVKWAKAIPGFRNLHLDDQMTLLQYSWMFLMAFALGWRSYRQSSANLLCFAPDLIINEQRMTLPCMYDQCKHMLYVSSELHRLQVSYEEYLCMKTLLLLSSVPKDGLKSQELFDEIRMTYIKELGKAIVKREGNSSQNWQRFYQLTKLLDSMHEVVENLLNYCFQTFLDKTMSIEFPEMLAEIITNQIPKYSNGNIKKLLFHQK
Description: GR (h) (agonist radioligand) assay performed by Eurofins Cerep, France using a method similar to the one described hereinbelow.
The human lymphoblast cell line IM9 is used as a source of the soluble glucocorticoid receptor (GR). The cells are grown to densities of 1 to 10×10^5 cells per milliliter in RPMI 1640 media containing 10% fetal bovine serum, penicillin (100 U/ml), streptomycin (100 μg/ml), and 2 mM L-glutamine at […] and 7% CO2 in a humidified incubator. The IM9 cells are harvested from the media by centrifugation for 10 minutes at 1500 g. Cells are washed in 12 volumes of Dulbecco's phosphate-buffered saline (PBS) and re-pelleted. Washed cells are resuspended in five to six volumes (per volume of packed cells) of homogenization buffer (10 mM TES, 10 mM sodium molybdate, 1 mM EDTA, pH 7.4, 20 mM 2-mercaptoethanol, and 10% glycerol), and the cells are broken by nitrogen cavitation using 2×15 minutes at 600 to 750 psi nitrogen in the N2 cavitator at 0° C. Cell disruption is confirmed by Hoffman contrast microscopy using a Nikon Diaphot. The broken cell preparation is then centrifuged at 27,000 g for 15 minutes, and the resultant supernatant was centrifuged at 103,000 g for 60 minutes at 4° C. The amount of protein in the supernatant fraction is determined using a BCA assay kit with a bovine serum albumin standard. Aliquots of the supernatant fraction are snap frozen in a dry ice-acetone bath and stored at −70° C. Competitive binding assays are done in duplicate in homogenization buffer (total volume of […]) by mixing 1 mg of IM9 cytosol, 0.05/ρCi (3 nM) of ^3H-dexamethasone, and Compounds described herein (10^−5 to 10^−11 M). After incubation at 0° C. for 16 to 18 hours, the assay is stopped by the addition of […] of a charcoal-dextran mixture (2% activated charcoal, 0.5% dextran in 10 mM Tris, 1 mM EDTA, pH 7.4). The assay mixture is further incubated at 0° C. for 10 minutes before being centrifuged for 5 minutes at 8200 g. A 100-μl sample of the supernatant (protein-bound steroid fraction) is assayed for radioactivity by liquid scintillation spectrometry, and the IC50 values were determined graphically.
In some instances, an ester is active in the glucocorticoid binding assay. In some instances, an ester retains activity, such as when attached to a keratolytic agent (or a radical thereof), in the glucocorticoid binding assay.

[2] = test system: psoriasis, alopecia, dermatitis, dry eye disease; conditions: humans and/or murine models; literature; cited from earlier work
alopecia = conditions: humans and murine models; NCT02974868; cited from earlier work
[3] = test system: psoriasis, alopecia, uveitis; conditions: murine models; Mesa 2010, Falto-Aizpurua et al 2014, Lin et al 2021; cited from earlier work
Rabbit Cornea Esterase = assay: Rabbit Cornea Homogenate Stability Assay (Rabbit Cornea Esterase Assay); assay type: in vitro ADME; conditions: Table 13, rabbit breed not given
Description: Example 1: Rabbit Cornea Homogenate Stability Assay […]
Three to four rabbit corneas (e.g., New Zealand Whites (NZW) or Dutch Belted (DB)) of approx. 50 mg each were sliced and scraped with a scalpel and tweezers until reduced to small (1-3 mm), thin pieces. These were transferred into a glass vial containing approximately 2 mL of cold DPBS pH 7.4 buffer.
Sample was cooled intermittently on ice and shear homogenized for 3 minutes, then centrifuged for 3 min at 13,000 g. The supernatant was pipetted off into a vial, and total protein concentration determined at 280 nm. Sample was stored at −78° C.
10 mM Compound DMSO stocks were diluted to 10 μM in a glass vial: 10 μL of 10 mM Compound stock was added to 9,990 μl 50 mM DPBS, pH 7.4 buffer. Esterase homogenate was diluted to 300 ng/μl and 900 ng/μL in DPBS.
A heater shaker was set to 37° C. Into a suitable 96 well plate (Run Plate), 70 μL of 300 or 900 ng/μl esterase homogenate was pipetted into two rows as compounds were analyzed in duplicate (2 min, 5 min, 10 min, 20 min and 45 min). The plate was sealed and then warmed at 37° C. for 5 min.
Two 96 deep-well plates were put on ice (Kill Plates). To these, 990 μL of 50:50 MeCN—H2O were added to required rows, labelled 0 min 2 min, 5 min, 10 min, 20 min and 45 min. The plates were covered to minimize evaporation.
To both rows of the Run Plate, 70 μL of 10 μM compound solution was added. At the appropriate time point, 10 μL of the assay mixture was added to the matching kill plate well containing 990 μL of 50:50 cold MeCN—H2O. Samples were analyzed as soon as practicable by UPLC-MS (Waters Xevo TQ-S).
A heater shaker was set to 37° C. Into a suitable 96 well plate (Run Plate), 80 μL of 300 or 900 ng/μL esterase homogenate was pipetted into two rows as compounds were analyzed in duplicate (2 min, 5 min, 10 min, 20 min and 45 min). The plate was sealed and then warmed at 37° C. for 5 min.
Two 96 shallow-well plates were placed on ice (Kill Plates). To these, 180 μL of 60:40 MeCN-H2O+0.1% acetic acid are added to required rows. The plates were sealed to minimize evaporation.
To both rows of the Run Plate, 80 μL of 10 μM compound solution was added. At the appropriate time point, 20 μL of the assay mixture was added to the matching kill plate well containing 180 μL of 60:40 cold MeCN-H2O+0.1% acetic acid. For lipoic acid analysis, samples were analyzed as soon as practicable by LCMS (Waters Xevo TQ-S). For parent conjugate and parent analysis the samples are diluted further 1 in 10: 20 μL supernatant is added to 180 μL of 50:50 MeCN—H2O.

[4] = test system: keratoconjunctivitis and dry eye disease; conditions: humans and/or dogs; Kravetz de Oliveira 2019; cited from earlier work
[5] = test system: dermatitis, keratoconjunctivitis, dry eye disease; conditions: humans and/or dogs; literature; cited from earlier work

## CN(Cc1cnc2nc(N)nc(N)c2n1)c1ccc(C(=O)N[C@@H](CCC(=O)O)C(=O)O)cc1 [methotrexate, (2S)-2-[(4-{[(2,4-Diaminopteridin-6-yl)methyl](methyl)amino}benzoyl)amino]pentanedioic acid]
uveitis
  objective signs of uveitis: improvements in objective signs

## COc1ccc([C@]2(C#N)CC[C@@H](C(=O)O)CC2)cc1OC1CCCC1 [Cilomilast, cis-4-cyano-4-[3-(cyclopentyloxy)-4-methoxyphenyl]cyclohexanecarboxylic acid]
Dry eye
  objective signs of dry eye: improvements in objective signs

## C[C@@H]1C[C@H]2[C@@H]3C[C@H](F)C4=CC(=O)C=C[C@]4(C)[C@@]3(F)[C@@H](O)C[C@]2(C)[C@@]1(OC(=O)CCCC[C@@H]1CCSS1)C(=O)O [Chemical Synthesis Example 68, (6S,8S,9R,10S,11S,13S,14S,16R,17R)-17-((5-((R)-1,2-Dithiolan-3-yl)pentanoyl)oxy)-6,9-difluoro-11-hydroxy-10,13,16-trimethyl-3-oxo-6,7,8,9,10,11,12,13,14,15,16,17-dodecahydro-3H-cyclopenta[a]phenanthrene-17-carboxylic acid]
[1]
  EC50: 21 nM

## CC(=O)N1[C@H](C(=O)O[C@]2(C(=O)O)[C@H](C)C[C@H]3[C@@H]4C[C@H](F)C5=CC(=O)C=C[C@]5(C)[C@@]4(F)[C@@H](O)C[C@@]32C)CSC1(C)C [Chemical Synthesis Example 70, (6S,8S,9R,10S,11S,13S,14S,16R,17R)-17-(((R)-3-Acetyl-2,2-dimethylthiazolidine-4-carbonyl)oxy)-6,9-difluoro-11-hydroxy-10,13,16-trimethyl-3-oxo-6,7,8,9,10,11,12,13,14,15,16,17-dodecahydro-3H-cyclopenta[a]phenanthrene-17-carboxylic acid]
[1]
  EC50: > 100 nM

## C[C@@H]1CCN(C(=O)CC#N)C[C@@H]1N(C)c1ncnc2[nH]ccc12 [Tofacitinib, 3-[(3R,4R)-4-Methyl-3-[methyl(7H-pyrrolo[2,3-d]pyrimidin-4-yl)amino]piperidin-1-yl]-3-oxopropanenitrile]
[2]
  objective signs of psoriasis, alopecia, dermatitis and dry eye disease: improvements in objective signs

## C[C@]12C=CC(=O)C=C1CC[C@H]1[C@@H]3CC[C@](OC(=O)CCCC[C@@H]4CCSS4)(C(=O)OCCl)[C@@]3(C)C[C@H](O)[C@@]12F
[1]
  EC50: 0.35 nM

## C=CC(=O)N1C[C@H](Nc2ncnc3[nH]ccc23)CC[C@@H]1C [Ritlecitinib, 1-((2S,5R)-5-((7H-pyrrolo[2,3-d]pyrimidin-4-yl)amino)-2-methylpiperidin-1-yl)prop-2-en-1-one]
alopecia
  objective signs of alopecia: improvements in objective signs

## N#CC[C@H](C1CCCC1)n1cc(-c2ncnc3[nH]ccc23)cn1 [Ruxolitinib, (3R)-3-Cyclopentyl-3-[4-(7H-pyrrolo[2,3-d]pyrimidin-4-yl)pyrazol-1-yl]propanenitrile]
[3]
  objective signs of psoriasis, alopecia and uveitis: improvements in objective signs

## C[C@@H]1C[C@H]2[C@@H]3C[C@H](F)C4=CC(=O)C=C[C@]4(C)[C@@]3(F)[C@@H](O)C[C@]2(C)[C@@]1(OC(=O)CCCC[C@@H]1CCSS1)C(=O)OCC#N [Compound 73A, Cyanomethyl (6S,8S,9R,10S,11S,13S,14S,16R,17R)-17-((5-((R)-1,2-dithiolan-3-yl)pentanoyl)oxy)-6,9-difluoro-11-hydroxy-10,13,16-trimethyl-3-oxo-6,7,8,9,10,11,12,13,14,15,16,17-dodecahydro-3H-cyclopenta[a]phenanthrene-17-carboxylate]
Rabbit Cornea Esterase; rabbit cornea homogenate 0.15 mg/mL
  Esterase (0.15 mg/mL) % parent released after 45 min: A (<25%)
Rabbit Cornea Esterase; rabbit cornea homogenate 0.45 mg/mL
  Esterase (0.45 mg/mL) % parent released after 45 min: A (<25%)
[1]
  EC50: > 100 nM

## C=CC[C@H]1/C=C(/C)C[C@@H](C)C[C@@H](OC)[C@@H]2O[C@@](O)(C(=O)C(=O)N3CCCCC3C(=O)O[C@H](/C(C)=C/[C@@H]3CC[C@@H](O)[C@H](OC)C3)[C@H](C)[C@@H](O)CC1=O)[C@H](C)C[C@@H]2OC (single isomer, unassigned; (-)) [Tacrolimus]
[4]
  objective signs of keratoconjunctivitis and dry eye disease: improvements in objective signs

## CNS(=O)(=O)C[C@H]1CC[C@H](N(C)c2ncnc3[nH]ccc23)CC1 [Oclacitinib, N-methyl{trans-4-[methyl(7H-pyrrolo[2,3-d]pyrimidin-4-yl)amino]cyclohexyl}methanesulfonamide]
[5]
  objective signs of dermatitis, keratoconjunctivitis and dry eye disease: improvements in objective signs
